“Also recorded” adds a separate entry of the source.
What was measured:
Lewis Lung carcinoma = settings: Friberg et al., 2002; cited from earlier work
CHOP = experiment: Intracellular staining for CHOP in Treg activation cultures; assay type: cell-based, mouse; settings: 2 days
Protocol: (§1) FACS staining. Antibodies were from BD-Pharmingen unless otherwise noted. Anti-mouse CD25-APC conjugate (clone PC61, cat. #17-0251-81) was from eBioscience; this conjugate gave brighter signal and better separation of CD25^+ cells than other conjugates from other suppliers. For intracellular staining of CHOP, live cells were first blocked for 10 minutes with mouse Fc Block (BD Pharmingen) in 10% fetal calf serum medium, stained with anti-CD4-FITC for 30 minutes on ice, washed with PBS, then fixed and permeablized for 20 minutes in 250 μl Cytoperm/Cytofix solution (BD Pharmingen) on ice. All subsequent staining and wash steps were in BD Permwash solution. Fixed cells were stained with 1:100 dilution of monoclonal anti-gadd153/CHOP (sc-7351, Santa Cruz Biotechnology), washed, and stained with secondary monoclonal rat anti-mouse-IgG1-PE (#550083, BD Biosciences). […] For Foxp3 staining, anti-Foxp3-PE antibody (clone FJK-16s) was obtained from eBioscience and used per the manufacturer's protocol. For Foxp3 staining, assays omitted A1 bystander cells and Tregs were identified by CD4 expression, as for CHOP staining. Biotinylated anti-PD-L1 (clone MIH5) and anti-PD-L2 (clone TY25) were purchased from eBioscience.
GCN2-kinase is required for Treg activation. […] Treg activation cultures were set up as in FIG. 2, and CHOP expression measured by intracellular staining after two days.

TDLN cells = assay type: in vivo, mouse
Tregs [1] = experiment: Treg activation culture and readout assays (agent in pre-activation step); assay type: cell-based, mouse; settings: for IDO-induced Treg activation (suppressor activity of re-sorted Tregs in readout assays): agent added to activation (pre-activation) cultures with TDLN pDCs + OT-I + feeder cells, 1MT 200 uM, anti-CTLA4 10 ug/ml, tryptophan 250 uM, readout A1 T cells + CBA DCs
Protocol: Treg activation culture and readout assays. […] The pDC fraction (CD11c^+B220^+) was sorted from 2-6 pooled TDLNs (day 7-11 of tumor growth) and collected in medium on ice. […] […] […] After two days, cultures were harvested, stained for CD4, and Tregs isolated by sorting for CD4^+ cells. […] Re-sorted Tregs were added to readout assays containing 1×10^5 A1 cells, 2×10^3 CD11c^+ DCs from CBA spleen (or 5×10^4 B cells, as CD11c^NEG B220^+ spleen cells), plus H-Y peptide. For assays performed in transwells, Multiwell 96-well insert plates (1 uM pore size, BD-Falcon) were used and the number of cells in all groups was doubled.
Feeder layer. […] As a feeder layer we added T cell-depleted spleen cells (1×10^5 sorted CD4^NEGCD8^NEG cells) to all assays.
Resting Tregs, from spleens of mice without tumors, were co-cultured with IDO^+ DCs from TDLNs, then re-sorted and transferred to readout assays (A1 T cells+CBA DCs) to measure suppression. […] Co-cultures also contained a feeder layer of T-depleted spleen cells as described in the Methods section. After 30-48 hours, co-cultures were harvested and the Tregs recovered by sorting for CD4^+ cells. Since the Tregs were the only CD4^+ cells in the co-cultures, they could be unambiguously recovered.

Foxp3 = Foxp3 upregulation in naive CD4+CD25NEG A1 T cells in cocultures with IDO+ pDCs; assay type: cell-based, mouse
Protocol: FACS staining. Antibodies were from BD-Pharmingen unless otherwise noted. […] For intracellular staining of CHOP, live cells were first blocked for 10 minutes with mouse Fc Block (BD Pharmingen) in 10% fetal calf serum medium, stained with anti-CD4-FITC for 30 minutes on ice, washed with PBS, then fixed and permeablized for 20 minutes in 250 μl Cytoperm/Cytofix solution (BD Pharmingen) on ice. All subsequent staining and wash steps were in BD Permwash solution. […] For Foxp3 staining, assays omitted A1 bystander cells and Tregs were identified by CD4 expression, as for CHOP staining.
Therefore, whether IDO would induce naive CD4+ cells to differentiate into Foxp3^+ cells in this system was studied. Cocultures were set up as shown for FIG. 6A, comprising IDO^+ pDCs, OT-I, feeder cells, mature Tregs (Thy1.1 congenic), plus a population of CD4^+CD25^NEG T cells (naive male-specific A1 T cells isolated from female mice). CBA splenic DCs were also added to serve as APCs for the A1 cells. After two days, co-cultures were harvested and stained for intracellular Foxp3.

Tregs [2] = experiment: Mixed co-cultures with bystander A1 cells; assay type: cell-based, mouse
Protocol: A1 T cells and CBA DCs were added directly to the Treg pre-activation assay at the start of culture. Thus, the combined cultures comprised IDO^+ pDCs, OT-I T cells, Tregs, A1 T cells, CBA splenic DCs, and feeder layer. […] However, the mixed co-cultures addressed the specific question of whether IDO and activated Tregs could produce effective levels of suppression rapidly enough that they could suppress the bystander A1 cells before they could begin dividing. […] In each case, parallel titrations were performed with or without the addition of anti-CD3 mAb. […] In the absence of Tregs there was substantial proliferation of T cells in co-cultures, despite the presence of IDO^+ pDCs. However, the addition of fewer than 5000 Tregs was sufficient to suppress proliferation of all cells in culture. […] Thus, the results of the mixed co-culture model were similar to those using the separate pre-activation and re-sorting step.
In FIG. 12A, mixed co-cultures were established as in FIG. 11, comprising Treg activation cultures (IDO^+ pDCs, OT-I cells, Tregs, and feeder layer) plus the direct addition of CFSE-labeled CD4^+ sorted A1 T cells plus CBA DCs plus HY peptide. After 2-3 days the mixed co-cultures were harvested and stained for CD25 versus CFSE. […] In FIG. 12B, IDO-activated Tregs were sorted as described in FIG. 2 and added to readout assays of A1 cells plus CBA DCs plus HY peptide. […]

Tregs [3] = experiment: DC adoptive transfer; assay type: in vivo, mouse; settings: recipient mice treated with sustained-release 1MT pellets 5 mg/day; Tregs sorted after 4 days
Text: DC adoptive transfer. […] Briefly, total CD11c^+ DCs were sorted from TDLNs, pulsed with […] peptide (SEQ ID NO:1), and 5×10^4 DCs injected subcutaneously into each anteriomedial thigh of recipient mice. Recipients had been pre-loaded one day before DC injection with 5×10^6 sorted CD8^+ OT-I cells. After four days, the inguinal LNs draining the site of DC injection were removed, and CD4^+CD25^+ Tregs were isolated by cell sorting.
IDO^+ DCs from TDLNs activate Tregs in vivo. To test the hypothesis that Treg activation in TDLNs might be related to the presence of IDO-expressing DCs, the DC population (CD11c^+ cells) from TDLNs was isolated and transferred to new, non-tumor-bearing hosts. […] Four days after DC transfer, host Tregs were sorted from LNs draining the site of DC injection and tested for suppressor activity. […] Thus, the DC fraction from TDLNs, by itself, was sufficient to activate resting Tregs in new hosts, in an IDO-dependent fashion.

PD-L1 and PD-L2 = PD-L1 and PD-L2 staining of DCs in readout assays; assay type: cell-based, mouse; settings: Tregs from pre-activation cultures in which IDO was blocked with 1MT
Protocol: as §1, with “For Foxp3 staining, assays omitted A1 bystander cells and Tregs were identified by CD4 expression, as for CHOP staining. Biotinylated anti-PD-L1 (clone MIH5) and anti-PD-L2 (clone TY25) were purchased from eBioscience.” left out
After 24 hours, cultures were harvested and stained for PD-L1 and PD-L2 relative to CD11c. […] In FIG. 3D, IDO-activated Tregs (1×10^4/well) and anti-CD3/IL-2-activated Tregs (2×10^4/well) were prepared as in the previous panel, and added to readout assays with or without recombinant IL-2, anti-IL-10 plus anti-TGF-β blocking antibodies (100 μg/ml each), or PD-1/PD-L blocking antibodies. […]

OT-I cells in TDLNs = experiment: CFSE labeling and T cell adoptive transfer; assay type: in vivo, mouse; settings: B16-OVA tumors, 4 days after transfer
Text: CFSE labeling and T cell adoptive transfer. Mice were implanted with B16-OVA tumors. […] After four days, the TDLNs and contralateral LNs (CLN) were harvested and stained for 1B11 (BD-Pharmingen) vs. CD8.

Tregs in TDLNs = settings: sustained-release 1MT throughout tumor growth
Protocol: Recombinant mouse IL-2 (R&D Systems) was used at 10 ng/ml.
Tregs from day seven TDLNs were sorted and added to readout assays (A1 T cells plus CBA DCs), with and without PD-1/PD-L blocking antibodies. […] Tregs from day seven tumors were tested in readout assays as above, with added isotype, PD-1/PD-L blocking antibodies, or a combination of anti-PD-1/PD-L plus IL-2 plus anti-IL-10/TGF-β antibodies.

P815 = settings: Uyttenhove et al., 2003; concomitant administration of 1-MT; cited from earlier work
IDO-activated Tregs = experiment: Readout assays: suppression of A1 T cell proliferation by IDO-activated Tregs (agent in readout assay); assay type: cell-based, mouse; settings: agent added to readout assay (A1 T cells + wild-type CBA DCs); antibodies 50 ug/ml each
Protocol: Treg activation culture and readout assays. […] The pDC fraction (CD11c^+B220^+) was sorted from 2-6 pooled TDLNs (day 7-11 of tumor growth) and collected in medium on ice. […] All cultures received a feeder layer of 1×10^5 T cell-depleted spleen cells (CD4^NEGCD8^NEG), as described below. […] After two days, cultures were harvested, stained for CD4, and Tregs isolated by sorting for CD4^+ cells. […] Re-sorted Tregs were added to readout assays containing 1×10^5 A1 cells, 2×10^3 CD11c^+ DCs from CBA spleen (or 5×10^4 B cells, as CD11c^NEG B220^+ spleen cells), plus H-Y peptide. For assays performed in transwells, Multiwell 96-well insert plates (1 uM pore size, BD-Falcon) were used and the number of cells in all groups was doubled.

anti-CD3-activated Tregs = experiment: Readout assays: suppression by anti-CD3/IL-2-activated Tregs; assay type: cell-based, mouse; settings: agent added to readout assay
Protocol: Treg activation culture and readout assays. […] The pDC fraction (CD11c^+B220^+) was sorted from 2-6 pooled TDLNs (day 7-11 of tumor growth) and collected in medium on ice. Pre-activation cultures contained 2×10^3 pDCs, 1×10^5 sorted CD8^+ OT-I cells, 100 nM […] peptide (SEQ ID NO:1), and 5×10^3 sorted CD4^+CD25^+ Tregs from spleens of B6 mice without tumors. All cultures received a feeder layer of 1×10^5 T cell-depleted spleen cells (CD4^NEGCD8^NEG), as described below. […] After two days, cultures were harvested, stained for CD4, and Tregs isolated by sorting for CD4^+ cells. […] Re-sorted Tregs were added to readout assays containing 1×10^5 A1 cells, 2×10^3 CD11c^+ DCs from CBA spleen (or 5×10^4 B cells, as CD11c^NEG B220^+ spleen cells), plus H-Y peptide. For assays performed in transwells, Multiwell 96-well insert plates (1 uM pore size, BD-Falcon) were used and the number of cells in all groups was doubled.
After 24 hours, cultures were harvested and stained for PD-L1 and PD-L2 relative to CD11c. […] In FIG. 3D, IDO-activated Tregs (1×10^4/well) and anti-CD3/IL-2-activated Tregs (2×10^4/well) were prepared as in the previous panel, and added to readout assays with or without recombinant IL-2, anti-IL-10 plus anti-TGF-β blocking antibodies (100 μg/ml each), or PD-1/PD-L blocking antibodies. Bars show SD for replicate wells in one of four similar experiments; *p<0.01 by ANOVA.

Molecule: Cn1cc(C[C@@H](N)C(=O)O)c2ccccc21 [1MT, 1-methyl-D-tryptophan]
- tumor outgrowth (Lewis Lung carcinoma): significantly delayed
- CHOP expression in OT-I cells (CHOP): abrogated
- CHOP induction in Tregs (CHOP; anti-Ia^b 100 ug/ml): prevented
- suppression by TDLN cells of untreated control mice (TDLN cells; 1MT added to the readout assays): not affected
- IDO-induced Treg activation (suppressor activity of re-sorted Tregs in readout assays) (Tregs [1]): no suppressor activity; also recorded: complete abrogation of activation; also recorded: minimal suppression; also recorded: completely abolished
- Treg activation (Tregs [1]; feeder layer replaced by recombinant cytokines (IFNα + IL-10 + TGF-β1)): abrogated
- cell division of A1 cells (CFSE) (Foxp3; CFSE-labeled A1 and OT-I cells): divided
- upregulation of Foxp3 in A1 cells (Foxp3; with H-Y peptide, 2 days): prevented
- suppressor activity of Tregs in mixed co-cultures (Tregs [2]; IDO blocked by 1MT, 10-fold more Tregs, absence of anti-CD3 mAb): no spontaneous suppressor activity
- division of A1CFSE cells in mixed co-cultures (Tregs [2]; plus 1MT, 2-3 days): able to divide
- activation of host Tregs by DCs from TDLNs (Tregs [3]): blocked
- PD-ligand expression by DCs in readout assays (PD-L1 and PD-L2): low
- 1B11 activation marker on OT-I in TDLNs (OT-I cells in TDLNs; oral 1MT 2 mg/ml in drinking water): uniformly upregulate
- cell division of OT-I in TDLNs (CFSE) (OT-I cells in TDLNs; oral 1MT): not able to undergo extensive cell division
- PD-1/PD-L-dependent type of Treg activity in TDLNs (Tregs in TDLNs): none
- effect of IDO transfection of P815 on tumor growth in pre-immunized hosts (P815): substantially reversed

Molecule: O=P1(N(CCCl)CCCl)NCCCO1 (centres unmarked) [cyclophosphamide]
- suppressor activity of TDLN cells after in vivo treatment (TDLN cells; B78H1-GMCSF tumors treated day 11, CY 150 mg/kg, 1MT pellets, TDLN cells 7 days later, readout BM3 T cells + B6 splenocytes): only slightly

Molecule: N[C@@H](Cc1c[nH]c2ccccc12)C(=O)O [tryptophan]
- IDO-induced Treg activation (suppressor activity of re-sorted Tregs in readout assays) (Tregs [1]): blocked

B1: recombinant IL-2: Recombinant mouse IL-2 (R&D Systems), used at 10 ng/ml (protein, UniProt P04351 21-169, looked up)
Interleukin-2: APTSSSTSSSTAEAQQQQQQQQQQQQHLEQLLMDLQELLSRMENYRNLKLPRMLTFKFYLPKQATELKDLQCLEDELGPLRHVLDLTQSKSFQLEDAENFISNIRVTVVKLKGSDNTFECQFDDESATVVDFLRRWIAFCQSIISTSPQ
- suppression of T cell proliferation by IDO-activated Tregs (IDO-activated Tregs): no effect
- suppression by anti-CD3-activated Tregs (anti-CD3-activated Tregs): fully reversed

Source: US20100055111A1, “INDOLEAMINE 2,3-DIOXYGENASE, PD-1/PD-L PATHWAYS, AND CTLA4 PATHWAYS IN THE ACTIVATION OF REGULATORY T CELLS” (Med. College of Georgia Research Institute, Inc., priority 2007, published 2010)
